Experimental data reported in publication PMC5218480 (PLoS ONE, 2017).

Test system: MV-4-11 cells
Assay: Gene expression microarray analysis (Affymetrix PrimeView) and GSEA
Type: cell-based, human
Parameters: RFU PODN (11730768_x_at) / Fold change /veh PODN (11730768_x_at) / RFU LINC00158 (11744669_a_at) / Fold change /veh LINC00158 (11744669_a_at) / RFU DUSP10 (11751237_a_at) / Fold change /veh DUSP10 (11751237_a_at) / RFU ID3 (11757404_x_at) / Fold change /veh ID3 (11757404_x_at) / RFU PLEKHG5 (11737974_s_at) / Fold change /veh PLEKHG5 (11737974_s_at) / RFU LRRC4B (11730491_at) / Fold change /veh LRRC4B (11730491_at) / RFU GIMAP4 (11747438_a_at) / Fold change /veh GIMAP4 (11747438_a_at) / RFU KRT8 (11758183_x_at) / Fold change /veh KRT8 (11758183_x_at) / RFU CNN1 (11734310_a_at) / Fold change /veh CNN1 (11734310_a_at) / RFU VPS37D (11726825_at) / Fold change /veh VPS37D (11726825_at) / RFU C10orf10 (11716522_x_at) / Fold change /veh C10orf10 (11716522_x_at) / RFU KIR2DL2 /// KIR2DL4 /// KIR2DL5A /// KIR2DL5B /// KIR2DS1 /// KIR2DS2 /// KIR2DS3 /// KIR2DS4 /// KIR3DL3 /// KIR3DL3 /// KIR3DS1 (11738374_at) / Fold change /veh KIR2DL2 /// KIR2DL4 /// KIR2DL5A /// KIR2DL5B /// KIR2DS1 /// KIR2DS2 /// KIR2DS3 /// KIR2DS4 /// KIR3DL3 /// KIR3DL3 /// KIR3DS1 (11738374_at) / RFU C1QL1 (11718748_at) / Fold change /veh C1QL1 (11718748_at) / RFU TMPRSS4 (11747572_a_at) / Fold change /veh TMPRSS4 (11747572_a_at) / RFU HAMP (11756126_x_at) / Fold change /veh HAMP (11756126_x_at) / RFU RNFT2 (11725882_a_at) / Fold change /veh RNFT2 (11725882_a_at) / RFU NR4A2 (11747474_a_at) / Fold change /veh NR4A2 (11747474_a_at) / RFU ABCC12 (11746883_a_at) / Fold change /veh ABCC12 (11746883_a_at) / RFU TMEM136 (11760407_x_at) / Fold change /veh TMEM136 (11760407_x_at) / RFU CLDN22 /// WWC2 (11732394_at) / Fold change /veh CLDN22 /// WWC2 (11732394_at) / RFU HLA-DPB1 (11760878_x_at) / Fold change /veh HLA-DPB1 (11760878_x_at) / RFU SPINT1 (11716480_a_at) / Fold change /veh SPINT1 (11716480_a_at) / RFU GAP43 (11754022_s_at) / Fold change /veh GAP43 (11754022_s_at) / RFU A4GNT (11735810_at) / Fold change /veh A4GNT (11735810_at) / RFU PRB3 (11715151_x_at) / Fold change /veh PRB3 (11715151_x_at) / RFU TUBB4B (11761932_at) / Fold change /veh TUBB4B (11761932_at) / RFU CAPN14 (11732068_a_at) / Fold change /veh CAPN14 (11732068_a_at) / RFU TMCC2 (11721928_a_at) / Fold change /veh TMCC2 (11721928_a_at) / RFU IRGQ (11745062_a_at) / Fold change /veh IRGQ (11745062_a_at) / RFU FAM174B (11720279_a_at) / Fold change /veh FAM174B (11720279_a_at) / RFU TMPRSS4 (11748680_a_at) / Fold change /veh TMPRSS4 (11748680_a_at) / RFU FAM212B (11763350_a_at) / Fold change /veh FAM212B (11763350_a_at) / RFU PLEKHG5 (11743358_a_at) / Fold change /veh PLEKHG5 (11743358_a_at) / RFU ZSCAN30 (11745921_a_at) / Fold change /veh ZSCAN30 (11745921_a_at) / RFU CMKLR1 (11741424_a_at) / Fold change /veh CMKLR1 (11741424_a_at) / RFU LOC101060620 /// MAPK8IP1 (11723275_at) / Fold change /veh LOC101060620 /// MAPK8IP1 (11723275_at) / RFU SPTSSB (11747773_x_at) / Fold change /veh SPTSSB (11747773_x_at) / RFU PRSS12 (11739890_at) / Fold change /veh PRSS12 (11739890_at) / RFU BIN1 (11741810_x_at) / Fold change /veh BIN1 (11741810_x_at) / RFU WNT11 (11732464_a_at) / Fold change /veh WNT11 (11732464_a_at) / RFU C10orf10 (11716521_a_at) / Fold change /veh C10orf10 (11716521_a_at) / RFU C5orf56 (11738089_at) / Fold change /veh C5orf56 (11738089_at) / RFU CYB561 (11721691_x_at) / Fold change /veh CYB561 (11721691_x_at) / RFU ANKRD19P (11752326_a_at) / Fold change /veh ANKRD19P (11752326_a_at) / RFU OR2T12 /// OR2T33 /// OR2T8 (11738714_s_at) / Fold change /veh OR2T12 /// OR2T33 /// OR2T8 (11738714_s_at) / RFU VCAN (11748164_a_at) / Fold change /veh VCAN (11748164_a_at) / RFU JSRP1 (11732532_at) / Fold change /veh JSRP1 (11732532_at) / RFU KRTAP10-11 (11738290_x_at) / Fold change /veh KRTAP10-11 (11738290_x_at) / RFU MYO3A (11730013_a_at) / Fold change /veh MYO3A (11730013_a_at) / RFU EBF3 (11725865_a_at) / Fold change /veh EBF3 (11725865_a_at) / RFU CAMK2N1 (11719241_x_at) / Fold change /veh CAMK2N1 (11719241_x_at) / RFU C5orf56 (11738088_a_at) / Fold change /veh C5orf56 (11738088_a_at) / RFU OLFML3 (11715873_a_at) / Fold change /veh OLFML3 (11715873_a_at) / RFU LOC100653217 /// NTM (11731650_a_at) / Fold change /veh LOC100653217 /// NTM (11731650_a_at) / RFU MAPK11 (11762145_a_at) / Fold change /veh MAPK11 (11762145_a_at) / RFU FIZ1 (11724087_x_at) / Fold change /veh FIZ1 (11724087_x_at) / RFU OASL (11726364_x_at) / Fold change /veh OASL (11726364_x_at) / RFU SOX15 (11748057_x_at) / Fold change /veh SOX15 (11748057_x_at) / RFU CD79A (11719716_a_at) / Fold change /veh CD79A (11719716_a_at) / RFU HIST1H1D (11736915_at) / Fold change /veh HIST1H1D (11736915_at) / RFU CASKIN2 (11723855_a_at) / Fold change /veh CASKIN2 (11723855_a_at) / RFU LOC730098 (11760151_x_at) / Fold change /veh LOC730098 (11760151_x_at) / RFU OR4N2 (11742367_at) / Fold change /veh OR4N2 (11742367_at) / RFU PRRT2 (11749266_a_at) / Fold change /veh PRRT2 (11749266_a_at) / RFU SNX32 (11753110_a_at) / Fold change /veh SNX32 (11753110_a_at) / RFU CDHR5 (11726645_a_at) / Fold change /veh CDHR5 (11726645_a_at) / RFU RCAN1 (11760418_a_at) / Fold change /veh RCAN1 (11760418_a_at) / RFU FAM167A (11723789_a_at) / Fold change /veh FAM167A (11723789_a_at) / RFU FAM26E (11764081_at) / Fold change /veh FAM26E (11764081_at) / RFU ISYNA1 (11749810_s_at) / Fold change /veh ISYNA1 (11749810_s_at) / RFU ACY1 (11761880_at) / Fold change /veh ACY1 (11761880_at) / RFU 11764098_at / Fold change /veh 11764098_at / RFU SAMD14 (11745864_x_at) / Fold change /veh SAMD14 (11745864_x_at) / RFU NPB (11741838_a_at) / Fold change /veh NPB (11741838_a_at) / RFU TMPRSS6 (11731388_a_at) / Fold change /veh TMPRSS6 (11731388_a_at) / RFU KRTAP10-2 (11738614_at) / Fold change /veh KRTAP10-2 (11738614_at) / RFU ARHGAP8 /// PRR5-ARHGAP8 (11727945_x_at) / Fold change /veh ARHGAP8 /// PRR5-ARHGAP8 (11727945_x_at) / RFU KRTAP5-7 /// NADSYN1 (11734609_at) / Fold change /veh KRTAP5-7 /// NADSYN1 (11734609_at) / RFU RASL12 (11751679_a_at) / Fold change /veh RASL12 (11751679_a_at) / RFU CDKN2B (11736163_a_at) / Fold change /veh CDKN2B (11736163_a_at) / RFU PRF1 (11729649_at) / Fold change /veh PRF1 (11729649_at) / RFU, ZNF638 /// ZNF638-IT1 / Fold change vs veh, ZNF638 /// ZNF638-IT1 / RFU, PANK3 / Fold change vs veh, PANK3 / RFU, SH3YL1 / Fold change vs veh, SH3YL1 / RFU, ZEB2 / Fold change vs veh, ZEB2 / RFU, NRIP1 / Fold change vs veh, NRIP1 / RFU, PTTG1IP / Fold change vs veh, PTTG1IP / RFU, CAPN2 / Fold change vs veh, CAPN2 / RFU, MED14 / Fold change vs veh, MED14 / RFU, SNORA58 / Fold change vs veh, SNORA58 / RFU, C1orf63 / Fold change vs veh, C1orf63 / RFU, LRRFIP1 / Fold change vs veh, LRRFIP1 / RFU, NDUFAF7 / Fold change vs veh, NDUFAF7 / RFU, SLC12A2 / Fold change vs veh, SLC12A2 / RFU, IBTK / Fold change vs veh, IBTK / RFU, ESF1 / Fold change vs veh, ESF1 / Fold change vs veh, TMEM50B / RFU, TAOK1 / Fold change vs veh, TAOK1 / RFU, ACBD3 / Fold change vs veh, ACBD3 / RFU, TMA16 / Fold change vs veh, TMA16 / RFU, RWDD3 / Fold change vs veh, RWDD3 / RFU, BCAT1 / Fold change vs veh, BCAT1 / RFU, EDEM3 / Fold change vs veh, EDEM3 / RFU, TMEM33 / Fold change vs veh, TMEM33 / RFU, WDR75 / Fold change vs veh, WDR75 / RFU, AHCTF1 / Fold change vs veh, AHCTF1 / RFU, TFRC / Fold change vs veh, TFRC / RFU, ZDHHC17 / Fold change vs veh, ZDHHC17 / RFU, NOM1 / Fold change vs veh, NOM1 / RFU, ARL8B / Fold change vs veh, ARL8B / RFU, ZBTB11 / Fold change vs veh, ZBTB11 / RFU, TAMM41 / Fold change vs veh, TAMM41 / RFU, KIAA1704 /// LOC100996395 / Fold change vs veh, KIAA1704 /// LOC100996395 / RFU, ING1 / Fold change vs veh, ING1 / RFU, TRMT61B / Fold change vs veh, TRMT61B / RFU, FUBP3 / Fold change vs veh, FUBP3 / RFU, TP53 / Fold change vs veh, TP53 / RFU, TNKS2 / Fold change vs veh, TNKS2 / RFU, ZFP14 / Fold change vs veh, ZFP14 / RFU, ACTR2 / Fold change vs veh, ACTR2 / RFU, PPP3R1 / Fold change vs veh, PPP3R1 / RFU, PIK3R1 / Fold change vs veh, PIK3R1 / RFU, HNRNPA1 / Fold change vs veh, HNRNPA1 / RFU, RNF170 / Fold change vs veh, RNF170 / RFU, ZNF28 / Fold change vs veh, ZNF28 / RFU, RNGTT / Fold change vs veh, RNGTT / RFU, OGT / Fold change vs veh, OGT / RFU, BRD1 / Fold change vs veh, BRD1 / RFU, MARS / Fold change vs veh, MARS / RFU, ZNF655 / Fold change vs veh, ZNF655 / RFU, FAHD1 / Fold change vs veh, FAHD1 / RFU, BDP1 / Fold change vs veh, BDP1 / RFU, LRRCC1 / Fold change vs veh, LRRCC1 / RFU, ARID1A / Fold change vs veh, ARID1A / RFU, ZNF146 / Fold change vs veh, ZNF146 / RFU, ZNF330 / Fold change vs veh, ZNF330 / RFU, GPN3 / Fold change vs veh, GPN3 / RFU, C9orf123 / Fold change vs veh, C9orf123 / RFU, N4BP2L2 / Fold change vs veh, N4BP2L2 / RFU, ARFIP1 / Fold change vs veh, ARFIP1 / RFU, FAM179B / Fold change vs veh, FAM179B / RFU, BCL10 / Fold change vs veh, BCL10 / RFU, UHRF1BP1L / Fold change vs veh, UHRF1BP1L / RFU, BET1 / Fold change vs veh, BET1 / RFU, CNOT2 / Fold change vs veh, CNOT2 / RFU, ZNF268 / Fold change vs veh, ZNF268 / Fold change vs veh, ZNF507 / RFU, DGCR2 / Fold change vs veh, DGCR2 / RFU, WDSUB1 / Fold change vs veh, WDSUB1 / Fold change vs veh, HSP90B1 /// MIR3652 / RFU, ADSS / Fold change vs veh, ADSS / RFU, GK / Fold change vs veh, GK / RFU, ZNF148 / Fold change vs veh, ZNF148 / RFU, TAF9 / Fold change vs veh, TAF9 / RFU, SLC1A5 / Fold change vs veh, SLC1A5 / RFU, SLMO2 / Fold change vs veh, SLMO2 / RFU, ABCC4 / Fold change vs veh, ABCC4 / RFU, LOC101060439 /// RAP1B / Fold change vs veh, LOC101060439 /// RAP1B / RFU, RFX7 / Fold change vs veh, RFX7 / RFU, GTPBP10 / Fold change vs veh, GTPBP10 / RFU, CNEP1R1 / Fold change vs veh, CNEP1R1 / RFU, BIVM-ERCC5 /// ERCC5 / Fold change vs veh, BIVM-ERCC5 /// ERCC5 / RFU, ILF3 / Fold change vs veh, ILF3 / RFU 11762660_at / Fold change /veh 11762660_at / RFU VCAN (11757783_s_at) / Fold change /veh VCAN (11757783_s_at) / RFU DDX43 (11728927_at) / Fold change /veh DDX43 (11728927_at) / RFU KRT8 (11758188_x_at) / Fold change /veh KRT8 (11758188_x_at) / RFU NKD1 (11759106_at) / Fold change /veh NKD1 (11759106_at) / RFU SRD5A1 (11742802_a_at) / Fold change /veh SRD5A1 (11742802_a_at) / RFU TPSAB1 /// TPSB2 (11721975_s_at) / Fold change /veh TPSAB1 /// TPSB2 (11721975_s_at) / RFU GSTM3 (11746129_a_at) / Fold change /veh GSTM3 (11746129_a_at) / RFU IL23R (11737362_x_at) / Fold change /veh IL23R (11737362_x_at) / RFU TMEM51 (11727254_a_at) / Fold change /veh TMEM51 (11727254_a_at) / RFU PIWIL2 (11732686_x_at) / Fold change /veh PIWIL2 (11732686_x_at) / RFU ORM1 (11744905_x_at) / Fold change /veh ORM1 (11744905_x_at) / RFU CCDC152 (11743942_at) / Fold change /veh CCDC152 (11743942_at) / RFU ECM1 (11717891_a_at) / Fold change /veh ECM1 (11717891_a_at) / RFU IL23R (11748794_a_at) / Fold change /veh IL23R (11748794_a_at) / RFU TNFAIP8L3 (11732012_x_at) / Fold change /veh TNFAIP8L3 (11732012_x_at) / RFU MBOAT4 (11741988_at) / Fold change /veh MBOAT4 (11741988_at) / RFU 11764193_at / Fold change /veh 11764193_at / RFU TMEM53 (11763286_at) / Fold change /veh TMEM53 (11763286_at) / RFU MAGEB2 (11727129_at) / Fold change /veh MAGEB2 (11727129_at) / RFU TMEM200A (11744735_a_at) / Fold change /veh TMEM200A (11744735_a_at) / RFU CCDC152 (11751479_a_at) / Fold change /veh CCDC152 (11751479_a_at) / RFU FAM211A (11726209_a_at) / Fold change /veh FAM211A (11726209_a_at) / RFU RGS16 (11746705_a_at) / Fold change /veh RGS16 (11746705_a_at) / RFU VCAN (11755009_s_at) / Fold change /veh VCAN (11755009_s_at) / RFU RHOB (11743442_s_at) / Fold change /veh RHOB (11743442_s_at) / RFU RGS16 (11720943_a_at) / Fold change /veh RGS16 (11720943_a_at) / RFU RGS16 (11720944_at) / Fold change /veh RGS16 (11720944_at) / RFU, VPS4B / Fold change vs veh, VPS4B / RFU, CREB1 / Fold change vs veh, CREB1 / RFU, DNAJC13 / Fold change vs veh, DNAJC13 / RFU, GNAQ / Fold change vs veh, GNAQ / RFU, CDK5R1 / Fold change vs veh, CDK5R1 / RFU, ZRANB3 / Fold change vs veh, ZRANB3 / RFU, CUL4A / Fold change vs veh, CUL4A / RFU, CCNY / Fold change vs veh, CCNY / RFU, UFL1 / Fold change vs veh, UFL1 / RFU, COG3 / Fold change vs veh, COG3 / RFU, DIAPH2 / Fold change vs veh, DIAPH2 / RFU, SKA2 / Fold change vs veh, SKA2 / RFU, AFF3 / Fold change vs veh, AFF3 / RFU, LMF1 / Fold change vs veh, LMF1 / RFU, IPO11 / Fold change vs veh, IPO11 / RFU, DFFB / Fold change vs veh, DFFB / RFU, FOXP1 / Fold change vs veh, FOXP1 / RFU, CARD8 / Fold change vs veh, CARD8 / RFU, STRN3 / Fold change vs veh, STRN3 / RFU, ADK / Fold change vs veh, ADK / RFU, RASSF2 / Fold change vs veh, RASSF2 / RFU, WIPF1 / Fold change vs veh, WIPF1 / RFU, LARP1B / Fold change vs veh, LARP1B / RFU, RASA1 / Fold change vs veh, RASA1 / RFU, RB1 / Fold change vs veh, RB1 / RFU, PPFIA1 / Fold change vs veh, PPFIA1 / RFU, MAT2A / Fold change vs veh, MAT2A / RFU, CCT5 / Fold change vs veh, CCT5 / RFU, WDR92 / Fold change vs veh, WDR92 / RFU, CUX1 / Fold change vs veh, CUX1 / RFU, TTC7A / Fold change vs veh, TTC7A / RFU, TMEM135 / Fold change vs veh, TMEM135 / RFU, DEPTOR / Fold change vs veh, DEPTOR / RFU, CPM / Fold change vs veh, CPM / RFU, DNAJB6 / Fold change vs veh, DNAJB6 / RFU, CACNA2D3 / Fold change vs veh, CACNA2D3 / RFU, DTX4 / Fold change vs veh, DTX4 / RFU, TFCP2 / Fold change vs veh, TFCP2 / RFU, GMCL1 /// GMCL1P1 / Fold change vs veh, GMCL1 /// GMCL1P1 / RFU, AEBP2 / Fold change vs veh, AEBP2 / RFU, SNHG1 /// SNORD22 /// SNORD25 /// SNORD26 /// SNORD27 /// SNORD28 /// SNORD29 /// SNORD31 / Fold change vs veh, SNHG1 /// SNORD22 /// SNORD25 /// SNORD26 /// SNORD27 /// SNORD28 /// SNORD29 /// SNORD31 / Fold change (Aza/veh), C12orf56 (ProbeSet 11735607_a_at) / Fold change (ACY-1035/veh), C12orf56 (ProbeSet 11735607_a_at) / Fold change (Aza/veh), FGFR1OP (ProbeSet 11751329_s_at) / Fold change (ACY-1035/veh), FGFR1OP (ProbeSet 11751329_s_at) / Fold change (Aza/veh), VPS36 (ProbeSet 11739960_a_at) / Fold change (ACY-1035/veh), VPS36 (ProbeSet 11739960_a_at) / RFU SYPL1 (11715823_x_at) / Fold change /veh SYPL1 (11715823_x_at) / RFU IGFBP7 (11715501_s_at) / Fold change /veh IGFBP7 (11715501_s_at) / RFU REEP3 (11722064_at) / Fold change /veh REEP3 (11722064_at) / RFU IGLL1 (11728026_x_at) / Fold change /veh IGLL1 (11728026_x_at): dose or concentration left out as unconfirmed
Details: ProbeSet 11716331_a_at; LIST D

Structure (SMILES): Nc1ccc(-c2cccs2)cc1NC(=O)c1ccc2c(c1)cc(C1CC1)n2CCN1CCOCC1 [ACY-1035]
- Fold change vs veh, DNAJB6: 0.86
